Assay results published in US20020137929A1, “1 - (3-heterocyclylphenyl) isothiourea, -isourea, -guanidine and -amidine herbicidal agents” (Intellectual Property Department, BASF Aktiengesellschaft, priority 1998, published 2002).

Key:
ORYSAT (Rice, Tebonnet) = test: Postemergence herbicidal evaluation; type: in vivo, Oryza sativa, (L.) Tebonnet; details: for ORYSAT herbicidal rating: postemergence
In short: (§1)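 Rate range approx. 0.0156–0.500 kg/ha. Foliar application at 40 psi to ~2-week seedlings; surfactant 0.5% TWEEN 20 in 50/50 acetone/water. Evaluation 4–5 wk post-treatment by 0–9 visual injury score, means of replicate tests.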

AMBEL (Ragweed, Common) [1] = test: Preemergence herbicidal evaluation; type: in vivo, Ambrosia artemisifolia; details: rated 4-5 weeks after treatment
In short: (§2)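 Greenhouse preemergence test: seed-soil mix sown on ~1 inch soil; aqueous acetone spray at equivalent of ~0.0156–0.500 kg/ha; greenhouse-held and watered; scored 0–9 visually at 4–5 weeks.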

[2] = tested on: CHEAL (Lambsquarters, Common); test: Postemergence herbicidal evaluation; type: in vivo, Chenopodium album; details: for CHEAL herbicidal rating: postemergence
In short: as §1

[3] = tested on: CHEAL (Lambsquarters, Common); test: Preemergence herbicidal evaluation; type: in vivo, Chenopodium album; details: rated 4-5 weeks after treatment
In short: as §2

[4] = tested on: GLXMAW (Soybean, Williams); test: Postemergence herbicidal evaluation; type: in vivo, Glycine max, (L.) Merr. cv Williams; details: for GLXMAW herbicidal rating: postemergence
In short: as §1

AMBEL (Ragweed, Common) [5] = test: Postemergence herbicidal evaluation; type: in vivo, Ambrosia artemisifolia; details: for AMBEL herbicidal rating: postemergence
In short: as §1

CYPSE (Flatsedge) [6] = test: Postemergence weed control under flooded paddy conditions; type: in vivo, Cyperus serotinus; details: postemergence weeds, rated 3 to 4 weeks after treatment
In short: (§3)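 With weeds 3 to 5 cm tall and rice at the 1.5 to 2.5 leaf stage, containers were flooded and water held 1.5 to 3 cm above soil. Compounds in 50/50 v/v aqueous/acetone went into the flood water at about 0.0313 to 0.500 kg/ha a.i. Effects were visually rated 0–9 against controls after three to four weeks in the greenhouse.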

CASOB (Sicklepod) = test: Preemergence herbicidal evaluation; type: in vivo, Cassia obtusifolia; details: rated 4-5 weeks after treatment
In short: as §2

ZEAMX (Corn, Field) = test: Postemergence herbicidal evaluation; type: in vivo, Zea mays; details: for ZEAMX herbicidal rating: postemergence
In short: as §1

GALAP (Galium) = test: Preemergence herbicidal evaluation; type: in vivo, Galium aparine; details: rated 4-5 weeks after treatment
In short: as §2

ABUTH (Velvetleaf) = test: Postemergence herbicidal evaluation; type: in vivo, Abutilon theophrasti; details: for ABUTH herbicidal rating: postemergence
In short: as §1

CYPIR (Rice Flatsedge) = test: Postemergence weed control under flooded paddy conditions; type: in vivo, Cyperus iria; details: postemergence weeds, rated 3 to 4 weeks after treatment
In short: as §3

ECHCG (Barnyardgrass) = test: Postemergence herbicidal evaluation; type: in vivo, Echinochloa crus-galli; details: for ECHCG herbicidal rating: postemergence
In short: as §1

CYPSE (Flatsedge) [7] = test: Preemergence weed control under flooded paddy conditions; type: in vivo, Cyperus serotinus; details: rated 3-4 weeks after treatment
In short: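 Values are visual 0-9 scores against a control for a preemergence application into paddy flood water at about 0.0313 to 0.500 kg/ha. Greenhouse duration was three to four weeks.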

CN1C(=O)C(CC(=O)O)SC1=Nc1cc(-n2c(=O)cc(C(F)(F)F)n(C)c2=O)c(F)cc1Cl (stereo not drawn) [Compound 63, 2-{{2-Chloro-5-[3,6-dihydro-3-methyl-2,6-dioxo-4-(trifluoromethyl)-1(2H)-pyrimidinyl]-4-fluoro-phenyl}imino}-3-methyl-4-oxo-5-thiazolidineacetic acid]
Postemergence herbicidal rating ORYSAT (ORYSAT (Rice, Tebonnet); Rate 0.0158 kg/ha): 5.0
Postemergence herbicidal rating ORYSAT (ORYSAT (Rice, Tebonnet); Rate 0.0315 kg/ha): 5.0
Postemergence herbicidal rating ORYSAT (ORYSAT (Rice, Tebonnet); Rate 0.0630 kg/ha): 6.0
Preemergence herbicidal rating AMBEL (AMBEL (Ragweed, Common) [1]; rate 0.0156 kg/ha): 0.0
Preemergence herbicidal rating AMBEL (AMBEL (Ragweed, Common) [1]; rate 0.0313 kg/ha): 0.0
Preemergence herbicidal rating AMBEL (AMBEL (Ragweed, Common) [1]; rate 0.0625 kg/ha): 6.0
Preemergence herbicidal rating AMBEL (AMBEL (Ragweed, Common) [1]; rate 0.1250 kg/ha): 9.0
Preemergence herbicidal rating AMBEL (AMBEL (Ragweed, Common) [1]; rate 0.2500 kg/ha): 9.0
Postemergence herbicidal rating CHEAL ([2]; Rate 0.0158 kg/ha): 9.0
Postemergence herbicidal rating CHEAL ([2]; Rate 0.0315 kg/ha): 9.0
Postemergence herbicidal rating CHEAL ([2]; Rate 0.0630 kg/ha): 7.0
Preemergence herbicidal rating CHEAL ([3]; rate 0.0313 kg/ha): 7.0
Preemergence herbicidal rating CHEAL ([3]; rate 0.0625 kg/ha): 9.0
Preemergence herbicidal rating CHEAL ([3]; rate 0.1250 kg/ha): 9.0
Preemergence herbicidal rating CHEAL ([3]; rate 0.2500 kg/ha): 9.0
Postemergence herbicidal rating GLXMAW ([4]; Rate 0.0158 kg/ha): 6.5
Postemergence herbicidal rating GLXMAW ([4]; Rate 0.0315 kg/ha): 8.5
Postemergence herbicidal rating GLXMAW ([4]; Rate 0.0630 kg/ha): 7.5
Postemergence herbicidal rating AMBEL (AMBEL (Ragweed, Common) [5]; Rate 0.0158 kg/ha): 6.0
Postemergence herbicidal rating AMBEL (AMBEL (Ragweed, Common) [5]; Rate 0.0315 kg/ha): 6.0
Postemergence herbicidal rating AMBEL (AMBEL (Ragweed, Common) [5]; Rate 0.0630 kg/ha): 9.0
Herbicidal rating CYPSE (CYPSE (Flatsedge) [6]; Rate 0.0313 kg/ha): 0.0
Herbicidal rating CYPSE (CYPSE (Flatsedge) [6]; Rate 0.0625 kg/ha): 0.0
Herbicidal rating CYPSE (CYPSE (Flatsedge) [6]; Rate 0.1250 kg/ha): 0.0
Herbicidal rating CYPSE (CYPSE (Flatsedge) [6]; Rate 0.2500 kg/ha): 0.0
Preemergence herbicidal rating CASOB (CASOB (Sicklepod); rate 0.0156 kg/ha): 0.0
Preemergence herbicidal rating CASOB (CASOB (Sicklepod); rate 0.0313 kg/ha): 2.0
Preemergence herbicidal rating CASOB (CASOB (Sicklepod); rate 0.0625 kg/ha): 2.0
Preemergence herbicidal rating CASOB (CASOB (Sicklepod); rate 0.1250 kg/ha): 2.0
Preemergence herbicidal rating CASOB (CASOB (Sicklepod); rate 0.2500 kg/ha): 7.0
Postemergence herbicidal rating ZEAMX (ZEAMX (Corn, Field); Rate 0.0158 kg/ha): 7.0
Postemergence herbicidal rating ZEAMX (ZEAMX (Corn, Field); Rate 0.0315 kg/ha): 7.5
Postemergence herbicidal rating ZEAMX (ZEAMX (Corn, Field); Rate 0.0630 kg/ha): 7.5
Preemergence herbicidal rating GALAP (GALAP (Galium); rate 0.0156 kg/ha): 0.0
Preemergence herbicidal rating GALAP (GALAP (Galium); rate 0.0313 kg/ha): 0.0
Preemergence herbicidal rating GALAP (GALAP (Galium); rate 0.0625 kg/ha): 0.0
Preemergence herbicidal rating GALAP (GALAP (Galium); rate 0.1250 kg/ha): 9.0
Preemergence herbicidal rating GALAP (GALAP (Galium); rate 0.2500 kg/ha): 9.0
Postemergence herbicidal rating ABUTH (ABUTH (Velvetleaf); Rate 0.0158 kg/ha): 9.0
Postemergence herbicidal rating ABUTH (ABUTH (Velvetleaf); Rate 0.0315 kg/ha): 6.0
Postemergence herbicidal rating ABUTH (ABUTH (Velvetleaf); Rate 0.0630 kg/ha): 9.0
Herbicidal rating CYPIR (CYPIR (Rice Flatsedge); Rate 0.0313 kg/ha): 2.0
Herbicidal rating CYPIR (CYPIR (Rice Flatsedge); Rate 0.0625 kg/ha): 6.0
Herbicidal rating CYPIR (CYPIR (Rice Flatsedge); Rate 0.1250 kg/ha): 7.0
Herbicidal rating CYPIR (CYPIR (Rice Flatsedge); Rate 0.2500 kg/ha): 7.0
Postemergence herbicidal rating ECHCG (ECHCG (Barnyardgrass); Rate 0.0158 kg/ha): 2.0
Postemergence herbicidal rating ECHCG (ECHCG (Barnyardgrass); Rate 0.0315 kg/ha): 2.0
Postemergence herbicidal rating ECHCG (ECHCG (Barnyardgrass); Rate 0.0630 kg/ha): 6.0
CYPSE herbicidal effect rating (CYPSE (Flatsedge) [7]; 0.0313 kg/ha): 0.0
CYPSE herbicidal effect rating (CYPSE (Flatsedge) [7]; 0.0625 kg/ha): 0.0
CYPSE herbicidal effect rating (CYPSE (Flatsedge) [7]; 0.1250 kg/ha): 0.0
CYPSE herbicidal effect rating (CYPSE (Flatsedge) [7]; 0.2500 kg/ha): 0.0

CCOC(=O)CN1C(=O)C(CC(=O)Nc2ccccc2)SC1=Nc1cc(-n2c(=O)cc(C(F)(F)F)n(C)c2=O)c(F)cc1Cl (stereo not drawn) [Compound 68, Ethyl 2-{{2-chloro-5-[3,6-dihydro-3-methyl-2,6-dioxo-4-(trifluoromethyl)-1(2H)-pyrimidinyl]-4-fluorophenyl}imino}-4-oxo-5-[(phenylcarbamoyl)-methyl]-3-thiazolidineacetate]
ORYSAT herbicidal rating (ORYSAT (Rice, Tebonnet); rate 0.0158 kg/ha): 3.0
ORYSAT herbicidal rating (ORYSAT (Rice, Tebonnet); rate 0.0315 kg/ha): 3.5
ORYSAT herbicidal rating (ORYSAT (Rice, Tebonnet); rate 0.0630 kg/ha): 4.0
Preemergence herbicidal rating AMBEL (AMBEL (Ragweed, Common) [1]; rate 0.0156 kg/ha): 0.0
Preemergence herbicidal rating AMBEL (AMBEL (Ragweed, Common) [1]; rate 0.0313 kg/ha): 0.0
Preemergence herbicidal rating AMBEL (AMBEL (Ragweed, Common) [1]; rate 0.0625 kg/ha): 0.0
Preemergence herbicidal rating AMBEL (AMBEL (Ragweed, Common) [1]; rate 0.1250 kg/ha): 1.0
Preemergence herbicidal rating AMBEL (AMBEL (Ragweed, Common) [1]; rate 0.2500 kg/ha): 7.0
CHEAL herbicidal rating ([2]; rate 0.0158 kg/ha): 4.0
CHEAL herbicidal rating ([2]; rate 0.0315 kg/ha): 7.0
CHEAL herbicidal rating ([2]; rate 0.0630 kg/ha): 7.0
Preemergence herbicidal rating CHEAL ([3]; rate 0.0156 kg/ha): 2.0
Preemergence herbicidal rating CHEAL ([3]; rate 0.0313 kg/ha): 9.0
Preemergence herbicidal rating CHEAL ([3]; rate 0.0625 kg/ha): 9.0
Preemergence herbicidal rating CHEAL ([3]; rate 0.1250 kg/ha): 9.0
Preemergence herbicidal rating CHEAL ([3]; rate 0.2500 kg/ha): 9.0
GLXMAW herbicidal rating ([4]; rate 0.0158 kg/ha): 6.0
GLXMAW herbicidal rating ([4]; rate 0.0315 kg/ha): 5.5
GLXMAW herbicidal rating ([4]; rate 0.0630 kg/ha): 7.0
AMBEL herbicidal rating (AMBEL (Ragweed, Common) [5]; rate 0.0158 kg/ha): 9.0
AMBEL herbicidal rating (AMBEL (Ragweed, Common) [5]; rate 0.0315 kg/ha): 9.0
AMBEL herbicidal rating (AMBEL (Ragweed, Common) [5]; rate 0.0630 kg/ha): 9.0
Herbicidal rating CYPSE (CYPSE (Flatsedge) [6]; Rate 0.0313 kg/ha): 0.0
Herbicidal rating CYPSE (CYPSE (Flatsedge) [6]; Rate 0.0625 kg/ha): 0.0
Herbicidal rating CYPSE (CYPSE (Flatsedge) [6]; Rate 0.1250 kg/ha): 0.0
Herbicidal rating CYPSE (CYPSE (Flatsedge) [6]; Rate 0.2500 kg/ha): 0.0
Preemergence herbicidal rating CASOB (CASOB (Sicklepod); rate 0.0156 kg/ha): 0.0
Preemergence herbicidal rating CASOB (CASOB (Sicklepod); rate 0.0313 kg/ha): 0.0
Preemergence herbicidal rating CASOB (CASOB (Sicklepod); rate 0.0625 kg/ha): 0.0
Preemergence herbicidal rating CASOB (CASOB (Sicklepod); rate 0.1250 kg/ha): 0.0
Preemergence herbicidal rating CASOB (CASOB (Sicklepod); rate 0.2500 kg/ha): 1.0
ZEAMX herbicidal rating (ZEAMX (Corn, Field); rate 0.0158 kg/ha): 5.0
ZEAMX herbicidal rating (ZEAMX (Corn, Field); rate 0.0315 kg/ha): 5.0
ZEAMX herbicidal rating (ZEAMX (Corn, Field); rate 0.0630 kg/ha): 5.5
Preemergence herbicidal rating GALAP (GALAP (Galium); rate 0.0156 kg/ha): 0.0
Preemergence herbicidal rating GALAP (GALAP (Galium); rate 0.0313 kg/ha): 0.0
Preemergence herbicidal rating GALAP (GALAP (Galium); rate 0.0625 kg/ha): 0.0
Preemergence herbicidal rating GALAP (GALAP (Galium); rate 0.1250 kg/ha): 0.0
Preemergence herbicidal rating GALAP (GALAP (Galium); rate 0.2500 kg/ha): 0.0
ABUTH herbicidal rating (ABUTH (Velvetleaf); rate 0.0158 kg/ha): 7.0
ABUTH herbicidal rating (ABUTH (Velvetleaf); rate 0.0315 kg/ha): 9.0
ABUTH herbicidal rating (ABUTH (Velvetleaf); rate 0.0630 kg/ha): 7.0
Herbicidal rating CYPIR (CYPIR (Rice Flatsedge); Rate 0.0313 kg/ha): 0.0
Herbicidal rating CYPIR (CYPIR (Rice Flatsedge); Rate 0.0625 kg/ha): 0.0
Herbicidal rating CYPIR (CYPIR (Rice Flatsedge); Rate 0.1250 kg/ha): 5.0
Herbicidal rating CYPIR (CYPIR (Rice Flatsedge); Rate 0.2500 kg/ha): 8.0
ECHCG herbicidal rating (ECHCG (Barnyardgrass); rate 0.0158 kg/ha): 2.0
ECHCG herbicidal rating (ECHCG (Barnyardgrass); rate 0.0315 kg/ha): 2.0
ECHCG herbicidal rating (ECHCG (Barnyardgrass); rate 0.0630 kg/ha): 5.0
CYPSE herbicidal effect rating (CYPSE (Flatsedge) [7]; 0.0313 kg/ha): 0.0
CYPSE herbicidal effect rating (CYPSE (Flatsedge) [7]; 0.0625 kg/ha): 0.0
CYPSE herbicidal effect rating (CYPSE (Flatsedge) [7]; 0.1250 kg/ha): 0.0
CYPSE herbicidal effect rating (CYPSE (Flatsedge) [7]; 0.2500 kg/ha): 0.0
